Assay results published in patent publication US20260061037A1, “BACILLUS SPECIES STRAIN EXPRESSING SUPEROXIDE DISMUTASE, BACILLUS SPECIES STRAIN SPORE AND/OR SUPEROXIDE DISMUTASE, AND USE THEREOF FOR PREVENTING OR TREATING OF FIBROTIC DISEASE” (HLB GENEX, INC., priority 2022, published 2026).

Columns and labels:
[1] = test system: nonalcoholic steatohepatitis (NASH) STAM™ animal model; assay: Sirius red staining of liver (fibrosis area) in NASH STAM model; format: in vivo, C57BL/6J mice; conditions: PO, QD; GF423 1×10^7 CFU, GF103 10 U, telmisartan 10 mg/kg; vs disease control group
Description: (§1) NASH was induced in all groups except the normal group of 8 mice as follows: On the second day after birth, the male mice were injected subcutaneously once with 200 μg streptozotocin (STZ, purchased from Sigma-Aldrich) solution. After the mice reached 4 weeks of age, a solid high-fat diet (HFD, 57 kcal % fat, purchased from CLEA Japan, Inc., Cat #HFD32) was placed on a metal lid on top of the cage so that the mice access it ad libitum, thereby inducing NASH
(§2) The GF427-administered groups were administered once a day at five dose levels: 0.05×10^7 (lowest dose), 0.1×10^7 (low dose), 0.5×10^7 (middle dose), 1×10^7 (high dose), and 5×10^7 CFU (highest dose) per mouse. The GF423-administered group was administered once a day at a dose of 1×10^7 CFU per mouse. […] The animals were monitored daily for viability, clinical signs (lethargy, convulsion, respiratory distress), and behavior to observe whether there are any significant clinical signs of toxicity, coma, and death before and after administration of the test substance. […]
For quantitative analysis of fibrosis area, bright field images of the Sirius red-stained section were captured around the central vein using a digital camera (DFC295, purchased from Leica) at 200-fold magnification, and the positive areas in 5 fields/section were measured using ImageJ software (National Institute of Health, USA). […]

[2] = test system: nonalcoholic steatohepatitis (NASH) STAM™ animal model; assay: H&E staining of liver and NAFLD activity score in NASH STAM model; format: in vivo, C57BL/6J mice; conditions: PO, QD; GF423 1×10^7 CFU, GF103 10 U, telmisartan 10 mg/kg; vs disease control group
Description: as §1
(§3) The GF427-administered groups were administered once a day at five dose levels: 0.05×10^7 (lowest dose), 0.1×10^7 (low dose), 0.5×10^7 (middle dose), 1×10^7 (high dose), and 5×10^7 CFU (highest dose) per mouse. The GF423-administered group was administered once a day at a dose of 1×10^7 CFU per mouse. GF103 was administered once a day at a dose of 10 U per mouse. Telmisartan was administered once a day at a dose of 10 mg/kg. […] The animals were monitored daily for viability, clinical signs (lethargy, convulsion, respiratory distress), and behavior to observe whether there are any significant clinical signs of toxicity, coma, and death before and after administration of the test substance. […]
The paraffin block of liver tissue prepared in Example 7.3 was sectioned using a rotary microtome (purchased from Leica Microsystems). […] The tissue slides were subjected to H&E staining and evaluated by the investigator. […]

[3] = test system: nonalcoholic steatohepatitis (NASH) STAM™ animal model; assay: Plasma ALT level in NASH STAM model; format: in vivo, C57BL/6J mice; conditions: PO, QD; GF423 1×10^7 CFU, GF103 10 U, telmisartan 10 mg/kg; vs disease control group
Description: as §1, §3
Plasma ALT level was measured using FUJI DRI-CHEM 7000 (purchased from Fujifilm Corporation). […]

[4] = test system: nonalcoholic steatohepatitis (NASH) STAM™ animal model; format: in vivo; conditions: PO, QD, GF423 1×10^7 CFU, telmisartan 10 mg/kg
Description: C57BL/6J mice (14-day-pregnant female, 6-week-old male) (purchased from SLC, Japan) were maintained in a SPF facility with controlled temperature (23±3° C.), humidity (50±20%), lighting (12-hour artificial light/dark cycle; light cycle from 08:00 to 20:00), and air exchange.
NASH was induced in all groups except the normal group of 8 mice as follows: On the second day after birth, the male mice were injected subcutaneously once with 200 μg streptozotocin (STZ, purchased from Sigma-Aldrich) solution. […]
The 10-week-old mice with induced NASH were randomized to 9 groups, each containing 8 mice, based on their body weight on the day before the start of treatment. […] The NASH model mice were stratified by the body weight, and the standard deviation (SD) was calculated to minimize the difference in mean body weight between the groups. […]
as §2, with “dose)” for “dose) per mouse. The GF423-administered group was administered once a day at a dose of 1×10^7 CFU”

[5] = test system: nonalcoholic steatohepatitis (NASH) STAM™ animal model; format: in vivo
Description: as §1
The GF427-administered groups were administered once a day at five dose levels: 0.05×10^7 (lowest dose), 0.1×10^7 (low dose), 0.5×10^7 (middle dose), 1×10^7 (high dose), and 5×10^7 CFU (highest dose) per mouse. The GF423-administered group was administered once a day at a dose of 1×10^7 CFU per mouse. GF103 was administered once a day at a dose of 10 U per mouse. Telmisartan was administered once a day at a dose of 10 mg/kg. GF427, GF423, and GF103 were administered orally in the form of a vehicle at a dose of 100 μL, and telmisartan was administered orally in the form of being supplemented with reverse osmosis water (RO water) at a dose of 10 mL/kg. The normal and disease control groups were not subjected to any treatment before sacrifice, and were sacrificed at 13 weeks of age by exsanguination via direct cardiac puncture under isoflurane (purchased from Pfizer Inc.) anesthesia. The animals were monitored daily for viability, clinical signs (lethargy, convulsion, respiratory distress), and behavior to observe whether there are any significant clinical signs of toxicity, coma, and death before and after administration of the test substance. […] All animal care and experiments were conducted in accordance with laws and regulations related to animal welfare and management.
At sacrifice of the mice, the whole liver was collected and washed with cold saline. Photographs of the individual whole liver (parietal side and visceral side) were taken. Then, the liver weight was measured and the liver-to-body weight ratio was calculated. […]

[6] = PO, QD, weeks 10 to 13, GF423 1×10^7 CFU, GF103 10 U, telmisartan 10 mg/kg, vs disease control group

CCCc1nc2c(C)cc(-c3nc4ccccc4n3C)cc2n1Cc1ccc(-c2ccccc2C(=O)O)cc1 [telmisartan, Telmisartan]
fibrosis area (Sirius red-positive area) [1]: tended to decrease
NAFLD activity score (NAS) [2]: significant decrease in NAS
plasma ALT level [3]: tended to show a decrease in plasma ALT level
mean body weight during the treatment period ([4]; weeks 10 to 13, GF427 0.05-5×10^7 CFU, GF103 10 U, vs disease control group): significantly lower than that of the disease control group from day 17 to day 21
mice found dead or euthanized before day 21 ([4]; 8 mice per group): two of the eight mice were euthanized
mean liver weight [5, 6]: significant decrease in mean liver weight
mean liver-to-body weight ratio [5, 6]: tended to show a decrease in mean liver-to-body weight ratio
daily mean body weight on the day of sacrifice ([5]; mouse, in vivo, po): significant decrease in daily mean body weight on the day of sacrifice
